This is an account of results in ChEMBL document CHEMBL1201862, “PubChem BioAssay data set” (2004).

SMILES strings stand for the structures. Activity calls are given as the source filed them.

The target in assay [1] is T1, Bifunctional protein GlmU (Mycobacterium tuberculosis, UniProt P9WMN3).
T1 sequence (P9WMN3 whole entry): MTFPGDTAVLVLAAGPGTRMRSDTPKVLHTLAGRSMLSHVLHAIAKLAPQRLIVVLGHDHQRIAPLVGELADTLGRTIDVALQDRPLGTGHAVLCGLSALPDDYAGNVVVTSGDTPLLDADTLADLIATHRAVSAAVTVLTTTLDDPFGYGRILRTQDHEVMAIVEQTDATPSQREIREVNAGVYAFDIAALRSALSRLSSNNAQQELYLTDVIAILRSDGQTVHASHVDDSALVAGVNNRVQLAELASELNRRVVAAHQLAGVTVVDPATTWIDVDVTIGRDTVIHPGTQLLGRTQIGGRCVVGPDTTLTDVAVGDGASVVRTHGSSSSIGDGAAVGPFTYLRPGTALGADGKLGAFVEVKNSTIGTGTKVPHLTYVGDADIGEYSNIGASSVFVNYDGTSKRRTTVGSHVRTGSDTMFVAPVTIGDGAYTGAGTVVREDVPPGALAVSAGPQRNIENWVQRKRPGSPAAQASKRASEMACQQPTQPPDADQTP
Nature of the assay: Inhibitors of Mycobacterial Glucosamine-1-phosphate acetyl transferase (GlmU). Secondary screen. On the set-up: species or system Mycobacterium tuberculosis H37Rv.

The target of assay [2] is T2, Estrogen receptor beta (Homo sapiens, UniProt Q92731).
Assay [3] addresses T2, Estrogen receptor beta. Nature of the assay: blockers of SRC-3 recruitment to ERβ – biochemical, ELISA, streptavidin-HRP readout, orthogonal assay, confirmation (AID 1060). For orientation: An ELISA detects its analyte on a solid surface through an enzyme-linked reagent.
The target in assay [4] is T3, Bcl-2-like protein 10 (Homo sapiens, UniProt Q9HD36).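 Further: fluorescence polarization from a fluorescein-labelled TR3 peptide binding purified Bcl-B.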
T3 sequence (Q9HD36 whole entry): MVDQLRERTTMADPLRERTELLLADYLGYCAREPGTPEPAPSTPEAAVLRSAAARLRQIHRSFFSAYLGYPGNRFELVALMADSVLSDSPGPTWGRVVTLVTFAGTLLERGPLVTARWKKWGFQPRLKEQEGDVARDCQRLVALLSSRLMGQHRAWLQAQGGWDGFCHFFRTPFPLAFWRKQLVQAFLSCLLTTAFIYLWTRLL
As to the kind of experiment: Bcl-B/TR3 peptide binding disruption – biochemical, fluorescence polarization, FITC-TR3 peptide, selectivity assay for Bfl-1 inhibitor project, primary screen (AID 748). (In general: Polarisation of emitted light reports the rotation of a fluorescent probe.)

Assay [5] has as its target Peroxisome proliferator-activated receptor gamma/Nuclear receptor coactivator 2 (Homo sapiens, UniProt P37231). The assay is classed as functional.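 Further: agonist potency for raising coactivator recruitment to the receptor.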
The target of assay [6] is Peroxisome proliferator-activated receptor gamma/Nuclear receptor coactivator 1 (Homo sapiens, UniProt P37231). In kind it is functional.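 Further: agonist potency as compounds enhance coactivator SRC-1 recruitment to PPARgamma.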
Assay [7] addresses Peroxisome proliferator-activated receptor gamma/Nuclear receptor coactivator 3 (Homo sapiens, UniProt P37231). The assay is classed as functional.
Assay [8] is described as follows: THP-1 cell cytotoxicity, dose response, cytotoxicity control for non-replicating M. tuberculosis project (AID 489025). The assay is classed as functional.
Assay [9] is described as follows: cells. The assay is classed as functional.
In assay [10] the target is DNA dC->dU-editing enzyme APOBEC-3A (Homo sapiens, UniProt P31941). As to the kind of experiment: A3A deaminase inhibition for selectivity – biochemical, dose response (AID 504722). In kind it is functional.
For assay [11], the target named is DNA dC->dU-editing enzyme APOBEC-3G (Homo sapiens, UniProt Q9HC16). As to the kind of experiment: Dose Response confirmation of small molecule APOBEC3G DNA Deaminase Inhibitors via a fluorescence-based single-stranded DNA deaminase assay. [Related pubchem assays (depositor defined):AID493012, AID493028]. In kind it is functional.
Assay [12] is described as follows: HEK-293T cell viability reduction – luminescence, B-cell screen hits, cytotoxicity control for BCR NF-kB inhibitor project, dose response (AID 489021).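 Further: HEK-293T cells carrying an NF-kB luciferase reporter; cells exposed to compound for about 14 hours before viability readout.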 In kind it is functional, cell-based.
Assay [13] deals with Cytochrome P450 2D6 (Homo sapiens, UniProt P10635). As to the kind of experiment: qHTS Assay for Inhibitors and Substrates of Cytochrome P450 2D6. [Related pubchem assays: 410 ]. In kind it is ADME. To be noted: read-out: Potency. A general note: In qHTS, concentration-response curves come from the screen itself.
The target of assay [14] is T4, Hexokinase HKDC1 (Homo sapiens, UniProt Q2TB90).
T4 sequence (Q2TB90 whole entry): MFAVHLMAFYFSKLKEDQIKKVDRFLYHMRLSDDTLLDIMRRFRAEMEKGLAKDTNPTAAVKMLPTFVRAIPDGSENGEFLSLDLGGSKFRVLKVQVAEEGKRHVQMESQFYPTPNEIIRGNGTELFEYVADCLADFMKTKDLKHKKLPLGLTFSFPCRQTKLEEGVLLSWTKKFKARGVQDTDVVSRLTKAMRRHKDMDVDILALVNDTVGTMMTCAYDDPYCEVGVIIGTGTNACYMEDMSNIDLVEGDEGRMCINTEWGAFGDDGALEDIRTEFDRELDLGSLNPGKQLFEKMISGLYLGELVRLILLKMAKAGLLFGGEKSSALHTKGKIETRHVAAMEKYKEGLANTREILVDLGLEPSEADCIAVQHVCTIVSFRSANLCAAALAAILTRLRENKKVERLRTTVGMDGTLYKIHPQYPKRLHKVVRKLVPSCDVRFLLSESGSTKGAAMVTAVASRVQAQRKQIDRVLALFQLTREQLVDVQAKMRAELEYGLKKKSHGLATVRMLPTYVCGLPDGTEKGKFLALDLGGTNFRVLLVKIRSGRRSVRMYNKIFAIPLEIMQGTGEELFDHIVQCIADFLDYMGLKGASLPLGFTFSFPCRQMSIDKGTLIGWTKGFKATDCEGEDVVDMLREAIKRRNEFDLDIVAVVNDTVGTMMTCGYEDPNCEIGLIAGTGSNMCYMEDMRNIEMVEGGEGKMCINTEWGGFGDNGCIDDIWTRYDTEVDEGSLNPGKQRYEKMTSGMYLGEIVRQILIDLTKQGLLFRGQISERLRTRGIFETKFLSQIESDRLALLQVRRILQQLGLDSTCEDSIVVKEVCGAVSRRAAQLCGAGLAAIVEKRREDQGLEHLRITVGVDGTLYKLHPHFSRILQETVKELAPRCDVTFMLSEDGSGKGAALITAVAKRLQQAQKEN
Nature of the assay: inhibition of HKDC1 glucose phosphorylation – biochemical, W721R variant, dose response (AID 504729). In kind it is functional.

Assay [15] addresses T5, Estrogen receptor (Homo sapiens, UniProt P03372).
T5 sequence (P03372 whole entry): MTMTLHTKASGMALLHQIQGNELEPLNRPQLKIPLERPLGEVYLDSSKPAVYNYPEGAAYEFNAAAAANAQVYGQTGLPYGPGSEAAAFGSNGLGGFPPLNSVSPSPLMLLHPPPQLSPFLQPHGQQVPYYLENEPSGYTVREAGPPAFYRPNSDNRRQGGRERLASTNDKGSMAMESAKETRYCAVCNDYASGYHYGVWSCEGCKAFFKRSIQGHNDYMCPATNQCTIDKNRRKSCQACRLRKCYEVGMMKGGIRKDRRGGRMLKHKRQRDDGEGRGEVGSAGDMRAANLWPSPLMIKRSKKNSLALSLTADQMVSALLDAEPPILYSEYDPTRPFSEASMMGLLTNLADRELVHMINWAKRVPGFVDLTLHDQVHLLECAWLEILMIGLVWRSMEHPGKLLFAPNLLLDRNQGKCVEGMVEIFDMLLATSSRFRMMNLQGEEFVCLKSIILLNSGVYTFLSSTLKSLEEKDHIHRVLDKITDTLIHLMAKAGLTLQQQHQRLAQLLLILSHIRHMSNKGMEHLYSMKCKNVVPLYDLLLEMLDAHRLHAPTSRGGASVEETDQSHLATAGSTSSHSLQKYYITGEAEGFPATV
Nature of the assay: ERα coactivator recruitment enhancers – biochemical, TR-FRET, ERα LBD, dose response (AID 737).

In assay [16] the target is Nonstructural protein 1 (Influenza A virus, UniProt Q194T2). In kind it is functional, Influenza A virus (A/California/07/2009(H1N1)).

Chain of Peroxisome proliferator-activated receptor gamma/Nuclear receptor coactivator 1 (P37231 whole entry): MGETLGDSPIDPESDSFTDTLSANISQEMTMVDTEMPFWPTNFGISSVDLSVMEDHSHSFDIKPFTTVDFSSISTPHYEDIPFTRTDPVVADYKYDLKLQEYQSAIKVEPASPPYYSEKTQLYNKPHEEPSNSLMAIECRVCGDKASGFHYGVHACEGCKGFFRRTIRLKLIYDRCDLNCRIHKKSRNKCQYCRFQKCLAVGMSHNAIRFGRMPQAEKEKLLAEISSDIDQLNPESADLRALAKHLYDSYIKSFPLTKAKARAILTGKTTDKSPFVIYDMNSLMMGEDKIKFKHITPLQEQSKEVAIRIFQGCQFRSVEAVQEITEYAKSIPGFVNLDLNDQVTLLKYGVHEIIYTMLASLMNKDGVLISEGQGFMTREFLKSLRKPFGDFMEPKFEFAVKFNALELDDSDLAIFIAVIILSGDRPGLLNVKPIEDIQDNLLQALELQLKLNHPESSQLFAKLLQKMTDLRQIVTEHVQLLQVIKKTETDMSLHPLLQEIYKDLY
Chain of Peroxisome proliferator-activated receptor gamma/Nuclear receptor coactivator 1 (Q15788 whole entry, further chain): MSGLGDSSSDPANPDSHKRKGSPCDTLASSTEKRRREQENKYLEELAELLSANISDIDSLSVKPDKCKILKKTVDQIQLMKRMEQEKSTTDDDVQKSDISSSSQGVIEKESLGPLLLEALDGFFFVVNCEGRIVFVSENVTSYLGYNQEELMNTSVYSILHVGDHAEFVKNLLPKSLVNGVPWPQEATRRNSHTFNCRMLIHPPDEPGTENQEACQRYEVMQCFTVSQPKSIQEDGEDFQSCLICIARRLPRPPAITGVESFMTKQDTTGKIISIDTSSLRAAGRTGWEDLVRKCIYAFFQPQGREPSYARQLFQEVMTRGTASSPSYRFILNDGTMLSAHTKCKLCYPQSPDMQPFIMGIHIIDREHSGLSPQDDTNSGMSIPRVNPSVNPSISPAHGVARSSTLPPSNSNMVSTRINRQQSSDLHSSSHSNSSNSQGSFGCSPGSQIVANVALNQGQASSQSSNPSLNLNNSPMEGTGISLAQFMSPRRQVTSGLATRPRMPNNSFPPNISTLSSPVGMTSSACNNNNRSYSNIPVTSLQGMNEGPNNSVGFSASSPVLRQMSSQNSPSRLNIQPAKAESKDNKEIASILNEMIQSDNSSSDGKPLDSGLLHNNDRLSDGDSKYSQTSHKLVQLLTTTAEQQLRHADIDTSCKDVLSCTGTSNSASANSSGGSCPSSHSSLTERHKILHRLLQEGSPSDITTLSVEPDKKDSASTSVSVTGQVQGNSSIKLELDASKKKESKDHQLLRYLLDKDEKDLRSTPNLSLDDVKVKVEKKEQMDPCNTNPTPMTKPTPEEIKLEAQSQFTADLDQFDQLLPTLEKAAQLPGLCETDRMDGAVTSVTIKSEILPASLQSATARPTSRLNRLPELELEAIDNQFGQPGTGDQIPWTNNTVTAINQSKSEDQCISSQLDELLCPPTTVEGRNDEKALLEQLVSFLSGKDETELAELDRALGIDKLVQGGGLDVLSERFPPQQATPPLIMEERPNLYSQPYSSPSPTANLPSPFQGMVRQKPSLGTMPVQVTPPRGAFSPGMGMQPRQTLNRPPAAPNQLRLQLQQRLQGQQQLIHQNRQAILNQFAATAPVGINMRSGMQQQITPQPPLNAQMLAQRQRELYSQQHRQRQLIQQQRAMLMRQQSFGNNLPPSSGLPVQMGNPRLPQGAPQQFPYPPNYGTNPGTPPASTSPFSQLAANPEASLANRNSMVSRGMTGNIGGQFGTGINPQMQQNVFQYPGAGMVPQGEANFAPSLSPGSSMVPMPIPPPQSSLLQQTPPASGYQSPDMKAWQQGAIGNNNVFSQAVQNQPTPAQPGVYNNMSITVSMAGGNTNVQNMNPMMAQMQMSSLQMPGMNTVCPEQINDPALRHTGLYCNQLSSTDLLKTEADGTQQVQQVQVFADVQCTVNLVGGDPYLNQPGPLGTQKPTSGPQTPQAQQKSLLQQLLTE
Chain of Peroxisome proliferator-activated receptor gamma/Nuclear receptor coactivator 2 (P37231 whole entry): as the sequence (P37231 whole entry) above
Chain of Peroxisome proliferator-activated receptor gamma/Nuclear receptor coactivator 2 (Q15596 whole entry, further chain): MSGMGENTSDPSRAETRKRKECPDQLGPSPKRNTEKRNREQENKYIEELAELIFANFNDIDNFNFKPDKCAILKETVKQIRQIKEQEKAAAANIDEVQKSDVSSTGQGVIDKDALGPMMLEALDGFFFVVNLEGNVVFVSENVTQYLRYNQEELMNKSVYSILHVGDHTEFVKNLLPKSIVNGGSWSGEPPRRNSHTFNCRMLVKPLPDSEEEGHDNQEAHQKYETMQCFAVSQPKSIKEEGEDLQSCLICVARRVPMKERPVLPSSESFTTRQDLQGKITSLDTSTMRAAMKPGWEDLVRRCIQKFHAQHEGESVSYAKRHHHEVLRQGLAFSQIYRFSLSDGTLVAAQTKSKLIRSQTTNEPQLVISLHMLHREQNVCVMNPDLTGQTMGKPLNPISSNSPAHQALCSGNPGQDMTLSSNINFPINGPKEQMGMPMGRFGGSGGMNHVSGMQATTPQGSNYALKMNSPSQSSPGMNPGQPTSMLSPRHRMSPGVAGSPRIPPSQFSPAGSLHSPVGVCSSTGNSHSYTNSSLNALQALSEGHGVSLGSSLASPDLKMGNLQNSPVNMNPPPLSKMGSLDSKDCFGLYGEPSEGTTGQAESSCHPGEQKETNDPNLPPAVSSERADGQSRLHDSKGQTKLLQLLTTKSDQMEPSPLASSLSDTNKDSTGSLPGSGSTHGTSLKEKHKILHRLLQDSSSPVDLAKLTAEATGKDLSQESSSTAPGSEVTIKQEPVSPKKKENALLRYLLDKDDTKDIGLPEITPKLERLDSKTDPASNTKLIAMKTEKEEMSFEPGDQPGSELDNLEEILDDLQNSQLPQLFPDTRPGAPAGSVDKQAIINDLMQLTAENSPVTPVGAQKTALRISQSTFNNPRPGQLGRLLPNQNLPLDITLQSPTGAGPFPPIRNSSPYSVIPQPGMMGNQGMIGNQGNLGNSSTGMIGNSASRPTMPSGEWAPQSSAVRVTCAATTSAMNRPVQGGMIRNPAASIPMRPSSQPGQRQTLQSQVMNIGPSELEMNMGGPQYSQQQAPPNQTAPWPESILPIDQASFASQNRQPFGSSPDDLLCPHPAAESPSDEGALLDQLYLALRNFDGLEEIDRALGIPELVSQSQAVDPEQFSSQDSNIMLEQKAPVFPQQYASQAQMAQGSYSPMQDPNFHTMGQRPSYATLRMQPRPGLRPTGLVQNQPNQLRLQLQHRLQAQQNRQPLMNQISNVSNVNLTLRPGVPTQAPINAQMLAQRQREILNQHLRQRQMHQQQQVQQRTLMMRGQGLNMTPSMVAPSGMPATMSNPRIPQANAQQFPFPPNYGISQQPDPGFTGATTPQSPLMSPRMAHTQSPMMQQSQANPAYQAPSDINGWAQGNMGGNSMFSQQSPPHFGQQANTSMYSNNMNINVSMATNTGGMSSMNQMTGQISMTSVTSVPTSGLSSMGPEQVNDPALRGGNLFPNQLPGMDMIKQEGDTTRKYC
Chain of DNA dC->dU-editing enzyme APOBEC-3A (P31941 whole entry): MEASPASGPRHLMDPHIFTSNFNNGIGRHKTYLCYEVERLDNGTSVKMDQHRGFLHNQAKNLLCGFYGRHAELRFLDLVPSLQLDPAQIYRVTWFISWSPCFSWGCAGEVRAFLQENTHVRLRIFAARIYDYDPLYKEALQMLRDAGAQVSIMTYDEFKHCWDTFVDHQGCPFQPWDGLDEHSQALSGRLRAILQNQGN
T2 sequence (Q92731 whole entry): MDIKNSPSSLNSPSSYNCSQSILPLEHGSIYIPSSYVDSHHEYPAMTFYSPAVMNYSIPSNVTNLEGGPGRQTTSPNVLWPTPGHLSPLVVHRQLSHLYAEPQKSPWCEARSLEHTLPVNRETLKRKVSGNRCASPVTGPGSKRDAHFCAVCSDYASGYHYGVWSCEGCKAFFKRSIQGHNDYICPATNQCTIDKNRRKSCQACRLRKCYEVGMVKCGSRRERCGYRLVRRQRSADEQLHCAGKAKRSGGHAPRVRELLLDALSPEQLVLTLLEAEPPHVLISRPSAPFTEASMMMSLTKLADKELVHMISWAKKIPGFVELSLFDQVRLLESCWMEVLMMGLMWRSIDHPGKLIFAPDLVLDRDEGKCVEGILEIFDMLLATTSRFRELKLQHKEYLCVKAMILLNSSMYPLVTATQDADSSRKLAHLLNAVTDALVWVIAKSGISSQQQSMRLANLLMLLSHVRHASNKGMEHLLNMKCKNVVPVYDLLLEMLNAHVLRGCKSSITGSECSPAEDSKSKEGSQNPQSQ
Chain of DNA dC->dU-editing enzyme APOBEC-3G (Q9HC16 whole entry): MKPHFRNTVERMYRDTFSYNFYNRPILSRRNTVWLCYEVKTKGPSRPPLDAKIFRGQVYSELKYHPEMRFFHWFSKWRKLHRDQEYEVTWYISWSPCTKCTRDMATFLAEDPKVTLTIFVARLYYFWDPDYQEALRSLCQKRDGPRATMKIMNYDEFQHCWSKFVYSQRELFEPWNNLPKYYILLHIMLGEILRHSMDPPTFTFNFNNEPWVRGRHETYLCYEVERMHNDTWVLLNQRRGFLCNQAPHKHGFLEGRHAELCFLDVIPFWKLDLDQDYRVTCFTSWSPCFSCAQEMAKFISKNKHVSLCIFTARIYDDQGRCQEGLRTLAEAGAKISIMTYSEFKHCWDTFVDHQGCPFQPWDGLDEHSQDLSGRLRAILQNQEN

For orientation: IC50 means the concentration at which inhibition is half-maximal. Take `Cc1ccc(C)n1-c1sccc1C(=O)O`: the IC50 is 46.9 µM (active) in [1], 4.48 µM (active) in assay [2], 6.1 µM (not active) in [3] and 0.783 µM (active) in assay [4].
In the case of `CSc1nc2n(n1)C(c1ccccn1)C1=C(O)CC(C)(C)CC1=N2` (configuration not stated), the IC50 in assay [4] was > 100 µM (inactive).
As usually defined, the EC50 is the midpoint of the concentration-response curve. Regarding `O=S1(=O)CC2N=C(N(Cc3ccc(F)cc3Cl)c3ccccc3F)SC2C1` (configuration not stated), the EC50 in assay [5], in [6] and in [7] was > 79.4 µM (not active) each time.
One may read the CC50 as the concentration that lowers cell viability or growth by half. In the case of `CCCCCCn1c(=O)c(C(=O)Nc2nnc(C)s2)c(O)c2ccccc21`, the CC50 in [8] was > 40 µM (active). Also, the IC50 in assay [9] is 22.6 µM (active).
Taken in the same sequence, the figures for `CCOC(=O)c1ccc(-c2ccc(C(=O)Nc3cccnc3)o2)cc1` were 29.7 µM (active) and 7.87 µM (active).
With `COc1ccc(N2C(=O)C[S+]([O-])C(c3ccccc3)C2=O)cc1` (configuration not stated), the IC50 in assay [10] is > 100 µM (inactive); in assay [11] it was 7.26 µM (active).
Take `Cc1ccc(C(=O)OCC(=O)N(CC(C)C)c2c(N)n(Cc3ccccc3)c(=O)[nH]c2=O)o1`: the IC50 in [12] was > 80 µM (inactive).
As to `Cc1ccc(/C=C2\SC(N)=NC2=O)s1`, the concentration giving a half-maximal response (EC50) in assay [5], in assay [6] and in [7] was > 79.4 µM (not active) each time.
In the case of `COc1cccc(/C=C/C2=CC3(C)CC2(C)C(c2cccc(OC)c2)CC3=O)c1` (configuration not stated), in assay [13], the AC50 was 3.16 µM (inconclusive).
As to `Cc1ccc2cc(CCNC(=O)c3ccc(S(=O)(=O)N4CCCCC4)cc3)c(O)nc2c1`, the IC50 in [14] was 8.17 µM (active).
Still for that read-out and setting: the same measure for `COC(=O)c1ccc(NCc2cc(O)ccc2O)cc1`: 12.2 µM (active).
Take `CC(=O)C1=C(C)OC(N)=C(C#N)C1c1ccco1` (configuration not stated): in assay [4], the IC50 was > 6.25 µM (inactive).
For `O=C(Oc1cccc(-c2cnc3ccccc3n2)c1)c1ccco1`, the 50% effective concentration (EC50) in assay [15] was 26.9 µM (active).
As to `COc1ccccc1CN(C)C(=O)c1ccc2c(c1)NC(=O)CS2`, the EC50 in assay [5], in assay [6] and in [7] was > 79.4 µM (not active) throughout.
On to `O=[N+]([O-])c1cccc(/C=N/n2c(S)nnc2COc2ccccc2)c1`, for which the IC50 in assay [10] is > 100 µM (inactive); in assay [11], 5.51 µM (active).
In the case of `Cc1ccc(Nc2ccccc2N)cc1`, the CC50 in assay [8] is > 40 µM (active). For the same compound, the half-inhibitory concentration (IC50) is 21.9 µM (active) in [16] and 0.74 µM (active) in assay [9].
Regarding `Cc1nc2c(O)c3c(c(O)c2nc1C)C1C=CC3CC1`, the half-maximal inhibitory concentration (IC50) in [14] was 2.23 µM (active).
